# In patent US8349823B2, “Treatment of renal cell carcinoma” (priority 2008, dated 2013):
# Legend:
# [1] = tested on: renal cancers not expressing the VHL gene; conditions: xenografted nude mice; cited from earlier work
# renal cancer xenografts = conditions: xenografts in nude mice, in some cases; cited from earlier work
# [2] = tested on: human renal cell carcinomas (786-0 and SKRC7); experiment: Dose/response effect of orellanine on renal cell carcinoma cells; format: cell-based; conditions: single 24 h exposure
# Method: Cells harvested from 2 different human renal cell carcinomas (SKRC-7, 786-0), representing both mother tumors and metastatic growths, were cultured under standard conditions. When approximately 70% confluent and in rapid growth, the cells were exposed to medium containing different concentrations of Orellanine […] for 24 h.
# [3] = tested on: cell lines and primary cells from numerous human tissues (tubular epithelium, podocytes, mesangial cells, fibroblasts, macrophages, endothelium, intestinal …); experiment: Effects of orellanine on other cell types, viability; format: cell-based; conditions: 24 h exposure, concentrations up to 1,000 μg/ml (highest achievable), observed six more days
# Method: Cell lines and primary cells originated from numerous human tissues (tubular epithelium, podocytes and mesangial cells from renal tissue, fibroblasts, macrophages, aortic endothelium, microvascular endothelium and umbilical chord endothelium, intestinal epithelium (duodenal, jejunal, ileal and colonic) and chondrocytes) were cultured under standard conditions. When approximately 70% confluent and in stable growth, the cells were exposed for 24 h to medium containing orellanine in concentrations selected in order to achieve a dose response. […] To compensate for any growth retarding effects caused by dilution of the culture medium by the large volume of orellanine solution added, all cells were supplemented with equal volumes of orellanine buffer.
# [4] = tested on: phosphorylated (activated) p38; experiment: Western blot of apoptosis pathways in renal cancer cells: p38; format: cell-based, human; conditions: 100 μg/ml, 24-h observation period; 786-0
# Method: (§1) For ERK 1/2 and p38, the ratios of phosphorylated (f) to total protein should be compared. Cleaved caspase 3 should be compared to the loading control, beta actin.
# (§2) Renal cancer cells were cultured and exposed to orellanine according to Example 7 and harvested at various times up to 24 h. The p38 MAPK system, the p53 system, Fas Ligand, Tumor Necrosis Factor alpha (TNF) and cleaved caspase 3 are key factors in apoptotic pathways leading to cell death. Western blotting was used to determine intracellular levels of A) p38, B) cleaved caspase 3, and C) the proliferative factor phosphorylated ERK 1/2.
# PUMA mRNA = experiment: Quantitative PCR of apoptosis mediators in renal cancer cells: PUMA; format: cell-based, human; conditions: SKRC-52, vs control cells without orellanine
# renal carcinoma = experiment: Treatment of a human patient with advanced renal cell carcinoma; format: in vivo; conditions: 10 daily i.v. injections of 280 mg (4 mg/kg), hemodialysis after each, further series as needed
# Method: The initial tumor burden of the patient is determined to be approximately 2 kg. Based on this value, the appropriate daily dose is determined to 280 mg (4 mg/kg at b.w. 70 kg). Before the first injection, the patient is prepared for hemodialysis or peritoneal dialysis since the Orellanine treatment will inevitably destroy healthy renal epithelial tissue along with the killing of the cancer cells, thus leaving the patient without renal function. Two hours after each injection, hemodialysis is started and maintained for 2 hours. […] Optionally, if the disease is unilateral, the unaffected kidney may be surgically removed and preserved during the treatment, and reimplantation attempted after conclusion of the treatment. The progress of the patient is monitored for one month, whereafter additional serial administrations of Orellanine are given as needed to inhibit growth of the renal carcinoma.
# cleaved caspase 3 = experiment: Western blot of apoptosis pathways in renal cancer cells: cleaved caspase 3; format: cell-based, human; conditions: 24 h after exposure; 786-0
# Method: as §1, §2
# [5] = Safety of i.v. orellanine during long term treatment with hemodialysis, dogs; conditions: 10 mg/kg initial, then 5 mg/kg after dialysis 3 times a week for 8 weeks
# Method: (§3) 5 pigs of the Göttingen minipig strain and 5 dogs of mixed breeding (body weight 10-15 kg) are set up for hemodialysis using equipment designed for children and infants. The animals receive initial doses of 10 mg orellanine/kg b.w. 24 h later, the animals are subjected to a dialysis session of approximately 3 h. After dialysis, the animals are injected with 5 mg orellanine/kg b.w. The dialysis/reinjection procedure is repeated 3 times a week (Monday, Wednesday, Friday) for 8 weeks. Once a week an assessment of the animals' general condition is made. At the end of the experiment all animals are terminated, and specimens for histopathological evaluation are taken from heart, lung, kidney, liver, spleen, small intestine, large intestine, brain, muscle and skin.
# cortical renal tissue = conditions: healthy rats; cited from earlier work
# [6] = tested on: phosphorylated retinoblastoma protein; experiment: Western blot of cell cycle proteins in renal cancer cells: phosphorylated Rb; format: cell-based, human; conditions: 100 μg/ml, 24 h measurement
# Method: (§4) FIG. 5: Effects of orellanine on the cell cycle in renal cell carcinoma (786-0 and SKRC-52) (Western Blot).
# (§5) Renal cancer cells, cultured essentially as described in Example 3, were treated with orellanin (100 μg/ml culture medium) for 24 h. During this period cells were harvested after 0, 2, 6 and 24 h exposure. Western blots were performed on the harvested material with antibodies directed against A) the kinase inhibitor p21, B) phosphorylated retinoblastoma protein (a growth stimulating factor), and C) the cdc2 protein which allows the cell to proceed into the M-phase of the cell cycle where the cell divides.
# [7] = tested on: human clear cell cancer (SKRC52); experiment: Morphological signs of apoptosis during incubation with orellanine; format: cell-based; conditions: 4 h and 24 h incubation
# [8] = tested on: human renal cell carcinomas (SKRC-52, 786-0, SKRC-17, SKRC-7 and SKRC-21); experiment: Viability of human renal cell carcinoma cells for 7 days after 24 h exposure to orellanine; format: cell-based; conditions: 400 μM orellanine for 24 h, then orellanine-free medium, observed six more days
# Method: FIG. 1: Observation of the viability of cells from 5 different human renal cell carcinomas (primary tumors and metastases) during 7 days following 24 h of exposure to 400 μM orellanine (100 μg/ml culture medium. Viability is calculated by dividing the number of living cells in treated samples by the number of living cells in control samples (n=6). The gray area in the graph represents the period of orellanine incubation (24 h). The following days the cells were cultured in orellanine-free complete culture medium. The medium was changed at each viability measurement.
# The pictures shown in FIGS. 2A and 2B were taken with the same magnification, and one week after incubation with orellanine/vehicle.
# Cells harvested from 5 different human renal cell carcinomas (SKRC-52, 786-0, SKRC-17, SKRC-7 and SKRC-21), representing both mother tumors and metastatic growths, were cultured under standard conditions. When approximately 70% confluent and in rapid growth, the cells were exposed to medium containing Orellanine (400 μM) for 24 h.
# Fas ligand (FasL) mRNA = experiment: Quantitative PCR of apoptosis mediators in renal cancer cells: Fas ligand; format: cell-based, human; conditions: SKRC-52, vs control cells without orellanine
# phosphorylated ERK 1/2 = experiment: Western blot of apoptosis pathways in renal cancer cells: ERK 1/2; format: cell-based, human; conditions: 100 μg/ml, up to 24 h; 786-0
# Method: as §1, §2
# [9] = tested on: Tumor Necrosis Factor alpha (TNF) mRNA; experiment: Quantitative PCR of apoptosis mediators in renal cancer cells: TNF; format: cell-based, human; conditions: SKRC-52, vs control cells without orellanine
# [10] = tested on: human renal carcinoma cells (SKRC-52); experiment: Subcutaneous human renal cell carcinoma in athymic rats; format: in vivo
# Source text: (§6) Athymic, T cell-deficient rats (RNU, Charles River Laboratories, FRG) are used as a system for in vivo-growth of human renal cell carcinomas. The absence of a T cell-based immune defense in these animals makes them tolerant towards xenografts. One week after arrival in the animal facility 10 animals receive an X-irradiation dosis of 5 Gy in order to suppress also their B cell-mediated response.
# (§7) The next day, all animals are equipped with an indwelling catheter for peritoneal dialysis (PD). PD treatment will replace the renal function that is lost as a side-effect upon administration of orellanine.
# (§8) One day later, 5 animals are inoculated subcutaneously in the shoulder region with approximately 10×10^6 human renal carcinoma cells (SKRC-52). The 5 remaining animals receive the same amount of cells by intravenous injection. […] At this point 2 animals (controls) in each group are injected i.p. with physiological saline solution and the remaining 3 animals receive 10 mg orellanine/kg b.w. i.p.
# [11] = Safety of i.v. orellanine during long term treatment with hemodialysis, pigs; conditions: 10 mg/kg initial, then 5 mg/kg after dialysis 3 times a week for 8 weeks
# Method: as §3
# [12] = tested on: human renal carcinoma cells (SKRC-52); experiment: Intravenously inoculated human renal cell carcinoma in athymic rats; format: in vivo; conditions: 10 mg/kg i.p. then 5 mg/kg i.v. at one and two weeks; terminated another week later
# Source text: as §6, §7, §8
# [13] = tested on: human renal cell carcinoma 786-0; experiment: Repeated administration of a lower dose of orellanine, viability; format: cell-based; conditions: for number of viable cells: viability 96 h after first dose
# Method: FIG. 4: Effect of repeated administration of a lower dose of orellanine. […] The first case is equivalent to a prolonged exposure of the cells (48 h), whereas the cells in the second case have been allowed to recover in orellanine-free medium for two days between the doses. Viability was measured 96 h after addition of the first orellanine dose.
# Cells harvested from the human renal cell carcinoma 786-0 were cultured under standard conditions. When approximately 70% confluent and in rapid growth, the cells were exposed to medium containing a low concentration of Orellanine (20 μg/ml) for 24 h. Then the medium was changed to new medium either containing 20 μg/ml orellanine for 24 h (middle bar) or back to regular, complete medium for 48 h, followed by another 24 h in the presence of 20 μg/ml orellanine (rightmost bar).
# cdc2 protein = experiment: Western blot of cell cycle proteins in renal cancer cells: cdc2; format: cell-based, human; conditions: 100 μg/ml, 24 h
# Method: as §4, §5
# kinase inhibitor p21 = experiment: Western blot of cell cycle proteins in renal cancer cells: p21; format: cell-based, human; conditions: 100 μg/ml, harvested 0, 2, 6, 24 h; 786-0 and SKRC-52
# Method: as §4, §5
structure (smiles),measurement,setting,value
CO[C@@H]1[C@H](O)C[C@@H](O[C@@H]2C[C@H](Oc3cc4cc5c(c(O)c4c(O)c3C)C(=O)[C@@H](O[C@H]3C[C@@H](O[C@H]4C[C@@H](O[C@H]6C[C@](C)(O)[C@@H](OC(C)=O)[C@H](C)O6)[C@H](O)[C@@H](C)O4)[C@H](O)[C@@H](C)O3)[C@H]([C@H](OC)C(=O)[C@@H](O)[C@@H](C)O)C5)O[C@H](C)[C@@H]2OC(C)=O)O[C@@H]1C [Chromomycin A3],tumor growth,[1],significantly retarded tumor growth
Cc1cc(N(CCOS(C)(=O)=O)CCOS(C)(=O)=O)ccc1C=O [NSC-281612],effect on tumor mass,renal cancer xenografts,apparently complete eradication of the tumor mass
"[O-][n+]1ccc(O)c(O)c1-c1c(O)c(O)cc[n+]1[O-] [Orellanine, 3,3′,4,4′-tetrahydroxy-2,2′-bipyridine-N,N′-dioxide]",dose response interval (orellanine dose vs cell death),[2],5 to 200 µg/mL
same,effects on viability,[3],None of the tested cell types exhibited any effects on viability
same,phosphorylated (activated) p38,[4],steady increase
same,PUMA mRNA expression,PUMA mRNA,extreme up-regulation
same,renal cancer at the conclusion of the treatment,renal carcinoma,completely eradicated
same,amount of cleaved caspase-3,cleaved caspase 3,dramatically increased
same,behavior and general condition,[5],remain normal
same,histopathological examination,[5],no tissue damage with the exception of the kidneys where there is widespread tubular damage leading to complete renal failure
same,expression of several key antioxidant genes,cortical renal tissue,dramatically decreased expression
same,oxidative stress in cortical renal tissue,cortical renal tissue,increased oxidative stress
same,phosphorylated forms of the retinoblastoma protein,[6],completely lacking
same,"typical signs of apoptosis, vacuolization and cell shrinkage",[7],"evident already after 4 h incubation, and are further aggravated after 24 h"
same,toxicity to the tested cell types (viability),[8],highly toxic to all the tested cell types
same,FasL mRNA expression,Fas ligand (FasL) mRNA,extreme up-regulation
same,phosphorylated ERK 1/2,phosphorylated ERK 1/2,up-regulation
same,TNF mRNA expression,[9],extreme up-regulation
same,signs of the tumors,"[10]; 10 mg/kg i.p. then 5 mg/kg into the tumor site, another 2 weeks later",no signs of the tumors are evident
same,tumor size relative to the size recorded at the time of injection,"[10]; 10 mg/kg i.p., two weeks after first injection",less than 25%
same,reduction of tumor size,"[10]; former control animals, 10 mg/kg into the tumor site, after 2 weeks",more than 75%
same,behavior and general condition,[11],remain normal
same,histopathological examination,[11],no tissue damage with the exception of the kidneys where there is widespread tubular damage leading to complete renal failure
same,tumor burden relative to control animals,[12],less than 10%
same,toxic effects of repeated exposure,[13]; repeated exposure at lower limit of the single exposure response interval (20 μg/ml),"further, marked toxic effects"
same,number of viable cells,[13]; second dose 20 μg/ml 24 h after the first dose,strong decrease in the number of viable cells
same,number of viable cells,[13]; second dose 20 μg/ml at 72 h,"considerably smaller, but still significant, effect"
same,cdc2 protein level,cdc2 protein,dramatically down-regulated
same,intracellular levels of p21,kinase inhibitor p21,increased with a maximum around 6 h
